Measurements taken from ChEMBL document CHEMBL1201862, “PubChem BioAssay data set” (2004).
Activity calls are given as the source filed them.

Experiments:
[1] = system: HEK293; assay: cells; details: Homo sapiens
[2] = microbe, parasite or virus in culture; assay type: functional; details: Mycobacterium tuberculosis
[3] = molecular target: T1, Streptokinase A (Streptococcus pyogenes serotype M1, UniProt P10520); assay: S. pyogenes streptokinase expression inhibitors, potency, dose response, plasminogen activation absorbance, OD405 (AID 1914); assay type: functional, Streptococcus pyogenes M1 GAS;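 further: secreted streptokinase activity via plasminogen activation per viability signal from cell pellet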
T1 sequence (P10520 whole entry): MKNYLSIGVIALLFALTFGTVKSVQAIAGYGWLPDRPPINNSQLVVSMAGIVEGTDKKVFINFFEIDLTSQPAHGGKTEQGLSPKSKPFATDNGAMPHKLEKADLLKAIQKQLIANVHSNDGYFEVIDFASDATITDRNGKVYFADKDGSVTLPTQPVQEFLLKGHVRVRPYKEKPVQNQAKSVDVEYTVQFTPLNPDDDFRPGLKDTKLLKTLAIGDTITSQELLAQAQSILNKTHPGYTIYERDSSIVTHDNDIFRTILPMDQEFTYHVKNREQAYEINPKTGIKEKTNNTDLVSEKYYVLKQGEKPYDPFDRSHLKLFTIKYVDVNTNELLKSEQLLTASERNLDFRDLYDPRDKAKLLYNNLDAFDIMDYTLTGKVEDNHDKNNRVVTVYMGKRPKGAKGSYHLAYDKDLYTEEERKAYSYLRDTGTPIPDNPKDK

[4] = system: INS1; assay: beta cell apoptosis inhibitors, cytokine rescue, dose response, luminescence, retest (AID 449756); assay type: functional, cell-based; details: Rattus norvegicus;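 further: cell death triggered by IL-1 beta plus TNF-alpha plus IFN-gamma mixture; protective hits raise ATP signal compared with cytokine alone wells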
[5] = system: Streptococcus sp. 'group A'; assay: growth inhibition of control SK(-) GAS strain, dose response, counter-screen for streptokinase expression inhibitor project, luminescence, kanamycin, BacTiterGlo, confirmation (AID 1900); assay type: functional, organism-based
[6] = system: HEK293; assay: cells; details: Homo sapiens; remark: listed apart in the source
[7] = molecular target: Beta-galactosidase (Escherichia coli, UniProt Q8VNN2); assay: beta-galactosidase enzyme inhibitors and activators, dose response, artefact control for CCR6 antagonist project, biochemical, E. coli enzyme, set 3 (AID 504712); assay type: functional
[8] = molecular target: C-C chemokine receptor type 6 (Homo sapiens, UniProt P51684); assay: CCR6 receptor antagonists, dose response, cell-based, luminescent beta-arrestin readout (AID 504728); assay type: functional
[9] = system: Streptococcus; assay: Group A Streptococcus viability loss, dose response, counter-screen for streptokinase expression inhibitor project, luminescence, BacTiterGlo (AID 1915); assay type: functional, organism-based;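 further: potency for reduction of bacterial viability or growth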
[10] = Luminescence Cell-Based Dose Response HTS to Identify Inhibitors of 5'UTR Stem-Loop Driven Prion Protein mRNA Translation in H4 Neuroglioblastoma Cells. [Related pubchem assays: 1827 (Project Summary), 1813 (Primary HTS)]; assay type: functional
[11] = inhibitors of SNCA 5'UTR-driven reporter translation, confirmation, H4 neuroglioma cells, luminescence (AID 1988); assay type: functional, cell-based
[12] = inhibitors of firefly luciferase expression or activity, dose response, H4 neuroglioma cells, luminescence (AID 1990); assay type: functional, cell-based
[13] = molecular target: T2, RNA-binding protein pos-1 (Caenorhabditis elegans, UniProt G5EF15); assay: inhibitors of POS-1/mex-3 RNA binding, dose response, biochemical, fluorescence polarization (AID 1964);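 further: purified POS-1 fused to maltose binding protein made in E. coli; potency of compounds blocking POS-1 binding to fluorescent RNA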
T2 sequence (G5EF15 whole entry): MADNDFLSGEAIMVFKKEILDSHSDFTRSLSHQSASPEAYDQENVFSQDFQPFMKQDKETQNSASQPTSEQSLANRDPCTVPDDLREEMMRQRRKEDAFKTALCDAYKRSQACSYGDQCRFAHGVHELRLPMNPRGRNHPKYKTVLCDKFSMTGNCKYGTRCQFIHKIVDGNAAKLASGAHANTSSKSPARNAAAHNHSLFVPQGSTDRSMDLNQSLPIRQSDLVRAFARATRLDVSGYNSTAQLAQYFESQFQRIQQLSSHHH

[14] = molecular target: T3, Zinc finger protein mex-5 (Caenorhabditis elegans, UniProt Q9XUB2); assay: MEX-5/TCR-2 RNA interaction inhibitors, dose response, biochemical, C. elegans, fluorescence polarization (AID 1960)
T3 sequence (Q9XUB2 whole entry): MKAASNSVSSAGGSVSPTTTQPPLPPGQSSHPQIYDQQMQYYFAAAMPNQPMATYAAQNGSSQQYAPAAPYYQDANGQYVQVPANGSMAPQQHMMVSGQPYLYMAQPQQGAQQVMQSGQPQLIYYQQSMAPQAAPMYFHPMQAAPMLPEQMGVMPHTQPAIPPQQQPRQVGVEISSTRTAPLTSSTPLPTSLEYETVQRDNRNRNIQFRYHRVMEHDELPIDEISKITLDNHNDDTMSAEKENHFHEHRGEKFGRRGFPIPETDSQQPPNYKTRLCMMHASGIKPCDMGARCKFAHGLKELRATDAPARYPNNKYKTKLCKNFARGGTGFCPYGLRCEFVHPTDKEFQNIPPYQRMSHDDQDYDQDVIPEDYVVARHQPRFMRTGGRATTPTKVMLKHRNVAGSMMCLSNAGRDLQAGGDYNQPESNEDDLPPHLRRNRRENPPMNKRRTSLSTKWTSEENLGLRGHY

[15] = molecular target: UDP-galactopyranose mutase (Mycobacterium tuberculosis, UniProt P9WIQ1); assay: Inhibitors of Mycobacterium tuberculosis UDP-galactopyranose mutase (UGM) enzyme Measured in Biochemical System Using Plate Reader - 2105-02_Inhibitor_Dose_CherryPick_Activity. [Related pubchem assays (depositor defined):AID504439]
[16] = molecular target: Keap1/Nrf2 (Homo sapiens, UniProt Q14145); assay: Keap1-Nrf2 protein-protein interaction inhibitors, dose response, biochemical, fluorescence polarization, cherry-picked samples (AID 588683)
[17] = molecular target: Apelin receptor (Homo sapiens, UniProt P35414); assay: APJ beta-arrestin recruitment antagonism, SAR follow-up, selectivity assay for CCR6 antagonist project, cell-based, luminescent, enzyme-fragment complementation (AID 588359); assay type: functional
[18] = molecular target: T4, Cytochrome P450 1A2 (Homo sapiens, UniProt P05177);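 further: PubChem cytochrome P450 panel assay, CYP1A2 panel member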
T4 sequence (P05177 whole entry): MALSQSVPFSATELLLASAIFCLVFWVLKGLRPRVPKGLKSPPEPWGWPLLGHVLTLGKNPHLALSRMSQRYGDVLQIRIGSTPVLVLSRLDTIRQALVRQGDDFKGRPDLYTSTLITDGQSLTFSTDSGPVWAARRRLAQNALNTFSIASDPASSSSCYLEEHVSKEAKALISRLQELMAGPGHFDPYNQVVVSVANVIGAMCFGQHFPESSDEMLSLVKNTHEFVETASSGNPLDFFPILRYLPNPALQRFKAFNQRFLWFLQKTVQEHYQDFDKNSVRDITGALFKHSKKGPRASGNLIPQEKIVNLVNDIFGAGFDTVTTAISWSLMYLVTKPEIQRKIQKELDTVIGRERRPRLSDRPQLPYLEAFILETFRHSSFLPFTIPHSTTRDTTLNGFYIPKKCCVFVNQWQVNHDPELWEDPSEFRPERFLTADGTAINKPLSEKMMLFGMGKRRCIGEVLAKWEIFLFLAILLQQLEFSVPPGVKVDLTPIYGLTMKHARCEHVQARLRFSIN

[19] = molecular target: Cytochrome P450 2C19 (Homo sapiens, UniProt P33261); assay: Cytochrome panel assay with activity outcomes. Panel member name: p450-cyp2c19 Compounds with AC50 equal or less than 10 uM are considered active; assay type: functional; details: read-out: AC50
[20] = molecular target: Cytochrome P450 2D6 (Homo sapiens, UniProt P10635);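 further: CYP2D6 member of a cytochrome P450 panel assay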
Cytochrome P450 2D6, sequence (P10635 whole entry): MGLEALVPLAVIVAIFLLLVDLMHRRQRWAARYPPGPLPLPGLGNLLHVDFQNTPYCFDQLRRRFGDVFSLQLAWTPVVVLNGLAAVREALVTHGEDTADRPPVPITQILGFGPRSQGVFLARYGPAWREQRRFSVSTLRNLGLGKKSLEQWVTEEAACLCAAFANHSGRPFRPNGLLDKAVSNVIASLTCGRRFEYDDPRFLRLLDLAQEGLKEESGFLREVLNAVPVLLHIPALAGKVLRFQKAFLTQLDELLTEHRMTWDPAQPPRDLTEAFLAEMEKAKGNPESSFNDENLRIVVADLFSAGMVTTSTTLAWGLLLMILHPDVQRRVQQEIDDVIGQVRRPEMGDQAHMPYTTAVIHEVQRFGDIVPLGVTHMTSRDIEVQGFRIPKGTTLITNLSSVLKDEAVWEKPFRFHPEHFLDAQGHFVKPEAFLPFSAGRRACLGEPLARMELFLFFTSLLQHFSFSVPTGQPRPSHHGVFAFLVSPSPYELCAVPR

Beta-galactosidase, sequence (Q8VNN2 whole entry): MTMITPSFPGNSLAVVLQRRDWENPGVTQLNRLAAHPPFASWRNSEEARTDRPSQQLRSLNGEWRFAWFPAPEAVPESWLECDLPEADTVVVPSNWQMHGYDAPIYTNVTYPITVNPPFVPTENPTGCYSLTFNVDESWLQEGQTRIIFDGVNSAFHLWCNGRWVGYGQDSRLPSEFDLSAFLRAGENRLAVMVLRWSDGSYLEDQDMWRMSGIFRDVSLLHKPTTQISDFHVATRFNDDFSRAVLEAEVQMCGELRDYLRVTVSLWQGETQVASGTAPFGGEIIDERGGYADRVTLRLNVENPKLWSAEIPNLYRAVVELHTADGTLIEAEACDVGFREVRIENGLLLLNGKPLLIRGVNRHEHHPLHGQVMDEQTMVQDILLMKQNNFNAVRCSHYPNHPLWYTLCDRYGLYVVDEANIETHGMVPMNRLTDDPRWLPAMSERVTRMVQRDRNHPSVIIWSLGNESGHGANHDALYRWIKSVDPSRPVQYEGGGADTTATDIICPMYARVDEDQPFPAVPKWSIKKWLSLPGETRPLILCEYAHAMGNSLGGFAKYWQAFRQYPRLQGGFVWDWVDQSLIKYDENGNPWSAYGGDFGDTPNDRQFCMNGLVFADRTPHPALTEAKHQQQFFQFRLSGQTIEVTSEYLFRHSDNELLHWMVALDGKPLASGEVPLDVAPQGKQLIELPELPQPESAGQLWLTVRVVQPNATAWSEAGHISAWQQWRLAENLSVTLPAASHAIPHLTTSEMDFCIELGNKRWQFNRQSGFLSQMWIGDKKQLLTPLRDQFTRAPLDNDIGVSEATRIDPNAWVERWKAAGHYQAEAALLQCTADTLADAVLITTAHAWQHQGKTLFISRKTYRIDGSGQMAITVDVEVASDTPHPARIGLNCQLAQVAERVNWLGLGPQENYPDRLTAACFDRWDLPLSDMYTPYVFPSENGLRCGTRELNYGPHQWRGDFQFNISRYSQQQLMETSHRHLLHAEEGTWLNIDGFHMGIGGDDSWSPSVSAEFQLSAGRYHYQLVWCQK
Apelin receptor, sequence (P35414 whole entry, the tested form may be a part): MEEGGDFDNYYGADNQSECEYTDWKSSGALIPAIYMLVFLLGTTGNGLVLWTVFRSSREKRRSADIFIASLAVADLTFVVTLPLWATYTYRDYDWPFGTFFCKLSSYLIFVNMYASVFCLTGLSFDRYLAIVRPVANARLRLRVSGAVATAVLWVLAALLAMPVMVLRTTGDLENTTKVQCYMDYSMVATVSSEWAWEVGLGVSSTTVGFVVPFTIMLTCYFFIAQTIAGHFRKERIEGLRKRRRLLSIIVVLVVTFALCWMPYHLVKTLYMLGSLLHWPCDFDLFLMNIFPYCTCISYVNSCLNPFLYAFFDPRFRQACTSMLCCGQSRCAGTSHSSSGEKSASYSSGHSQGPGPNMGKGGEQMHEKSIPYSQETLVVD
Cytochrome P450 2C19, sequence (P33261 whole entry): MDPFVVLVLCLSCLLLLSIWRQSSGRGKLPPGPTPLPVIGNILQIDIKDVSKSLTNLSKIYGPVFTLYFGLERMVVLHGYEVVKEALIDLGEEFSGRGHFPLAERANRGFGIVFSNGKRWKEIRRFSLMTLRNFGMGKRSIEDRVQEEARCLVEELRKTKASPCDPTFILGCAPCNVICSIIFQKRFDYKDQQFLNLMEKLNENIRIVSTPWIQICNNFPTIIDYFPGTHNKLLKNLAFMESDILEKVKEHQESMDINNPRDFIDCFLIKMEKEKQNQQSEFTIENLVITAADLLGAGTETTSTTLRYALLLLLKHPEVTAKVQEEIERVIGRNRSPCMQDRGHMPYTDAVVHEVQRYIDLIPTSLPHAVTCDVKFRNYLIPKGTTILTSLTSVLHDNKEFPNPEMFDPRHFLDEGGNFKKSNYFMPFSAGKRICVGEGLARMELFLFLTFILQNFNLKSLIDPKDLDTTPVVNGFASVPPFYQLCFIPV
Keap1/Nrf2, sequence (Q16236 whole entry, the tested form may be a part): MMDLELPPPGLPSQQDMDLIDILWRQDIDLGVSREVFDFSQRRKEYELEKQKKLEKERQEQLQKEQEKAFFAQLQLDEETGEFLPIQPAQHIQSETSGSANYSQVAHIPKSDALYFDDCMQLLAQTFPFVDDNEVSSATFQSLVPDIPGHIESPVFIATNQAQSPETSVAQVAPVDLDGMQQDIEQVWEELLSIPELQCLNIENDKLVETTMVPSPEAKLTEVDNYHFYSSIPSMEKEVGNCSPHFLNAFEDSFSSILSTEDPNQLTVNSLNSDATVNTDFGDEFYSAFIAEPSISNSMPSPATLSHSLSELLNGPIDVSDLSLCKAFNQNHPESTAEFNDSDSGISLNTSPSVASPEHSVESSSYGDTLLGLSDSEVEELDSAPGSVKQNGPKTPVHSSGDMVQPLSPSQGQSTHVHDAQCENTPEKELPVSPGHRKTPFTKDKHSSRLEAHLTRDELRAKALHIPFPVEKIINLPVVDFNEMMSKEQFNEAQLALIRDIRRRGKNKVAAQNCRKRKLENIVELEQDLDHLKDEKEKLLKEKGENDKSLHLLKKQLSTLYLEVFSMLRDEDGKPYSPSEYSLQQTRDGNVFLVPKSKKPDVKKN
Keap1/Nrf2, sequence (Q14145 whole entry, the tested form may be a part): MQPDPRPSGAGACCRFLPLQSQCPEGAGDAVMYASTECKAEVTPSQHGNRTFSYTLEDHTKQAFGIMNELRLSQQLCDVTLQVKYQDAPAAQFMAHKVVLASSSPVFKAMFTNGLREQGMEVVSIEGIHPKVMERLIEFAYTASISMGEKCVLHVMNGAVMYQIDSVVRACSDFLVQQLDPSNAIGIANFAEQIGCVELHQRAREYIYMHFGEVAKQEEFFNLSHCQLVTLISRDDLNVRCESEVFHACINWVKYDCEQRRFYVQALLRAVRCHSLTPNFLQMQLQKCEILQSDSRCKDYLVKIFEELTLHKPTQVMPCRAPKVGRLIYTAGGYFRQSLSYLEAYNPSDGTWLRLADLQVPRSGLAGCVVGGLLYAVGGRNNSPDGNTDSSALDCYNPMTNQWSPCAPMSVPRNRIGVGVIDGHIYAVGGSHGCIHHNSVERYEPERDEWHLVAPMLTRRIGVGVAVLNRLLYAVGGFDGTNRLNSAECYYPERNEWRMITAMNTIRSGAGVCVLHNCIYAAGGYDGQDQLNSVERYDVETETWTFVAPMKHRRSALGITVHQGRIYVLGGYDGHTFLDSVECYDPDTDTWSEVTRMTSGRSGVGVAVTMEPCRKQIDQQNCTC
UDP-galactopyranose mutase, sequence (P9WIQ1 whole entry): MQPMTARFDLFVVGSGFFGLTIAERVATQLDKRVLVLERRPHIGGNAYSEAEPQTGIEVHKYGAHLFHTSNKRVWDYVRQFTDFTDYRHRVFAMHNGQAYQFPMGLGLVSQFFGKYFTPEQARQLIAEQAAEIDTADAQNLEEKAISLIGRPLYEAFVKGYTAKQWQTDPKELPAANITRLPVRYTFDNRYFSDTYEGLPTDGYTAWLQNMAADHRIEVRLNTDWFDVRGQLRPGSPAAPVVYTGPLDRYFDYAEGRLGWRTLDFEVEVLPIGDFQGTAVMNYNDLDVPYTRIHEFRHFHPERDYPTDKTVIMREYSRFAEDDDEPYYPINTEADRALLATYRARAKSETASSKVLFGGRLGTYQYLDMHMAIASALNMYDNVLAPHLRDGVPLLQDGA
C-C chemokine receptor type 6, sequence (P51684 whole entry): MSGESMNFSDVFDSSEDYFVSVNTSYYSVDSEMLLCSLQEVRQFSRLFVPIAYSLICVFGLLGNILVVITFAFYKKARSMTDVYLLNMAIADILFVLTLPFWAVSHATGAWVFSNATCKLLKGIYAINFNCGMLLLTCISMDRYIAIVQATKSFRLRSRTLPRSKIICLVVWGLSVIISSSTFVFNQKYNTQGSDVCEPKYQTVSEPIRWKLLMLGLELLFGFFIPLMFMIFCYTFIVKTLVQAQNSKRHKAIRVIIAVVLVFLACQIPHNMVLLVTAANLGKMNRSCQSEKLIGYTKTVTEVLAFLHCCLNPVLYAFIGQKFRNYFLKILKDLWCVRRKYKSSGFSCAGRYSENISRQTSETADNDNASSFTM

Q: What does the source list for COc1cccc(/C=N/Nc2nc(Nc3ccccc3)nc(-n3nc(C)cc3C)n2)c1O?
A: EC50 [1]: > 59.6 µM (inactive); CC50 [2]: 8.56 µM (active); EC50 [3]: > 150 µM (not active); AC50 [4]: 0.535 µM (active); EC50 [5]: 1.7 µM (active); EC50 [6]: > 59.6 µM (inactive); IC50 [7]: > 66.6 µM (inactive); IC50 [8]: > 66.6 µM (inactive); EC50 [9]: 4.15 µM (active); EC50 [10]: 0.127 µM (active); EC50 [11]: 8.28 µM (active); EC50 [12]: 52.9 µM (active)

Q: Which results are given for COC(=O)Cn1cc(C=C2C(=O)N(C)C(=O)N(C)C2=O)c2ccccc21?
A: EC50 [13]: 3.15 µM (inconclusive); EC50 [14]: 2.85 µM (inconclusive); AC50 [15]: 129 µM (active)

Q: For Cc1ccc(S(=O)(=O)Nc2cccc(S(=O)(=O)Nc3ccccc3C(=O)O)c2)c(C)c1, which AC50 [16] is on record?
A: > 52 µM (inactive)

Q: What does the source list for CCOC(=O)N1CCN(C(=O)C2CCN(C(=O)c3ccccc3C)CC2)CC1?
A: IC50 [7]: > 66.6 µM (inactive); IC50 [17]: > 66.6 µM (inactive)

Q: Which AC50 [18] does the source give for COc1ccc(-c2oc3ccccc3c(=O)c2OC(=O)c2ccc(C)cc2)cc1 here?
A: 1.41 µM (inconclusive)

Q: And the AC50 [19]?
A: 1 µM (inconclusive)

Q: What about the AC50 [20] of the same compound?
A: inconclusive
